The text below walks through data of US9682980B2, “Positive allosteric modulators of mGluR2” (BRISTOL-MYERS SQUIBB COMPANY, priority 2012, dated 2017).

SMILES strings stand for the structures.

Chain of human mGluR2 (Q14416 19-872): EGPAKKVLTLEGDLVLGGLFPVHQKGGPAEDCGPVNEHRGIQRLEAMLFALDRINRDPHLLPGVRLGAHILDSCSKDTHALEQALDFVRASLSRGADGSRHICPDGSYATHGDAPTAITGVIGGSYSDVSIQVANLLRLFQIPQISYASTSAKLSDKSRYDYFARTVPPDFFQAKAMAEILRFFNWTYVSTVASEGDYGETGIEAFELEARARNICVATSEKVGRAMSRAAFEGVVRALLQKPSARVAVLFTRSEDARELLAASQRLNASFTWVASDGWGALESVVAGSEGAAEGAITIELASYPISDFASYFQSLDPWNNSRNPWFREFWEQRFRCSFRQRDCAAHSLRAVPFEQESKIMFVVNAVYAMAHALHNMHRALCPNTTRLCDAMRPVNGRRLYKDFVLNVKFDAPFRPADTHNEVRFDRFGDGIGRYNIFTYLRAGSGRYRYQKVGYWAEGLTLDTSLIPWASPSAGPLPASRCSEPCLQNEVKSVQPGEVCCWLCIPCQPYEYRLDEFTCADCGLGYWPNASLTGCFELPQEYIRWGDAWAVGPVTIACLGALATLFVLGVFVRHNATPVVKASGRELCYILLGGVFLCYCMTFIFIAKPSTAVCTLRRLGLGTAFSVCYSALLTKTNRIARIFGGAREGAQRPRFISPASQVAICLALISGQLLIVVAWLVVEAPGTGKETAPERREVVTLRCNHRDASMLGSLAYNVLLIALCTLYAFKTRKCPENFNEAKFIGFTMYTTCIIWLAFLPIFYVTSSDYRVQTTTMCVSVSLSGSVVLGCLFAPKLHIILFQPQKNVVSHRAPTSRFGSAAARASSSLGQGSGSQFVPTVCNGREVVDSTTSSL

The test has as its target human mGluR2 (Homo sapiens (Human), UniProt Q14416). Put plainly: MGluR2 cAMP assay. To be noted: HEK293 cells clonally expressing human mGluR2, 1 μM forskolin, 1 μM LY-341495. It is filed as cell-based. The procedure:
Clonally expressed human mGluR2 in HEK293 background was glutamate starved overnight in media without glutamine (GIBCO MEM 12360), containing 10% FBS, 1% penicillin streptomycin.
On the day of the assay, media was removed, cells washed with PBS, cells harvested and pelleted by centrifugation. Cell pellets were resuspended in stimulation buffer without forskolin and counted. A solution of 1.25×10^6 cells/ml was prepared and dispensed to plates using a Combi liquid handler (Thermo). A standard curve was created using a top concentration of cAMP of 1 μM in the stimulation buffer, 1:3 dilutions over 14 points in the absence of cells. Plates were read by time-resolved fluorescence at […] and a ratio was calculated via in house software, (665 nM/618 nM)*10^4. In house software converted the fluorescence value ratios to units of cAMP concentration, which is then used to calculate % inhibition for each test compound.
Compounds were added to white, standard volume 384 non-binding surface plates (Corning 3574). Cells were resuspended in stimulation buffer consisting of Hanks Balanced Salt Solution (14175-095) pH 7.0, 20 mM HEPES, 2.0 mM CaCl2, 5.0 mM MgCl2, and 1 mM IBMX (Sigma 15879), 1 μM forskolin, and 1 μM LY-341495, for 30 minutes. Buffer without forskolin was used as a negative control. Solutions of D2 and cryptate detection reagents from the CISBIO dynamic cAMP kit (62AM4PEJ) were diluted 1:40 in lysis buffer. Lysis buffer consisted of 50 mM Phosphate Buffer pH 7.0, 800 mM Potassium Fluoride, 0.2% BSA, and 1.0% Triton. Assay reaction was terminated by addition of detection reagents in lysis buffer. One hour later, plates were read on a PE Viewlux. Data was extracted, and concentration response curves generated by fitting the data to a standard 4 parameter logistic equation from which EC50 values were determined See table 1: A: <10 nM; B: 10-100 nM; C: 100-1000 nM; D: 1000-10000 nM.
Background: Cyclic AMP is a second messenger, typically raised through Gs and lowered through Gi signalling.
On to `Fc1ccc([C@@H]2C[C@H]2CNc2cnn3c(CC4CC4)nnc3c2Cl)cc1` (racemic) [Example 9, Trans-8-chloro-3-(cyclopropylmethyl)-N-((2-(4-fluorophenyl)cyclopropyl)methyl)-[1,2,4]triazolo[4,3-b]pyridazin-7-amine], for which the midpoint of the response, the EC50, lay at 76 nM.

`COc1ccccc1[C@@H]1C[C@H]1CNc1cnn2c(CC(F)(F)F)nnc2c1C(F)(F)F` (relative stereo) [Example 85, Trans-N-((2-(2-methoxyphenyl)cyclopropyl)methyl)-3-(2,2,2-trifluoroethyl)-8-(trifluoromethyl)-[1,2,4]triazolo[4,3-b]pyridazin-7-amine] had an EC50 of 10 nM.

For the compound `Clc1c(N2CCC(c3ccccc3)CC2)ncn2c(CC3CC3)nnc12` [Example 1, 8-Chloro-3-(cyclopropylmethyl)-7-(4-phenylpiperidin-1-yl)-[1,2,4]triazolo[4,3-c]pyrimidine], the concentration for a half-maximal effect (EC50) was 8 nM.

Turning to `Cc1c(N2CCC(c3ccccc3)CC2)ncn2c(CC3CC3)nnc12` [Example 2, 3-(Cyclopropylmethyl)-8-methyl-7-(4-phenylpiperidin-1-yl)-[1,2,4]triazolo[4,3-c]pyrimidine], the EC50 came out at 62 nM.

`COc1c(N2CCC(c3ccccc3)CC2)ncn2c(CC3CC3)nnc12` [Example 3, 3-(Cyclopropylmethyl)-8-methoxy-7-(4-phenylpiperidin-1-yl)-[1,2,4]triazolo[4,3-c]pyrimidine]: a half-maximal response (EC50) required 540 nM.

Consider `FC(F)(F)c1c(N2CCC(c3ccccc3)CC2)ncn2c(CC3CC3)nnc12` [Example 4, 3-(Cyclopropylmethyl)-7-(4-phenylpiperidin-1-yl)-8-(trifluoromethyl)-[1,2,4]triazolo[4,3-c]pyrimidine], for which the midpoint of the response, the EC50, lay at 69 nM.

For `Clc1c(N2CCC(c3ccccc3)CC2)cnn2c(CC3CC3)nnc12` [Example 5, 8-Chloro-3-(cyclopropylmethyl)-7-(4-phenylpiperidin-1-yl)-[1,2,4]triazolo[4,3-b]pyridazine], the midpoint of the response, the EC50, lay at 19 nM.

In the case of `Cc1c(N2CCC(c3ccccc3)CC2)cnn2c(CC3CC3)nnc12` [Example 6, 3-(Cyclopropylmethyl)-8-methyl-7-(4-phenylpiperidin-1-yl)-[1,2,4]triazolo[4,3-b]pyridazine], a half-maximal response (EC50) required 182 nM.

As for `FC(F)(F)c1c(N2CCC(c3ccccc3)CC2)cnn2c(CC3CC3)nnc12` [Example 7, 3-(Cyclopropylmethyl)-7-(4-phenylpiperidin-1-yl)-8-(trifluoromethyl)-[1,2,4]triazolo[4,3-b]pyridazine], a half-maximal response (EC50) required 3 nM.

As for `Clc1c(N2CCC(Cc3ccccc3)CC2)ncn2c(CC3CC3)nnc12` [Example 8, 7-(4-Benzylpiperidin-1-yl)-8-chloro-3-(cyclopropylmethyl)-[1,2,4]triazolo[4,3-c]pyrimidine], the midpoint of the response, the EC50, lay at 61 nM.

Regarding `Fc1ccc([C@@H]2C[C@H]2CNc2cnn3c(CC4CC4)nnc3c2Cl)cc1` [Example 10, 8-Chloro-3-(cyclopropylmethyl)-N-(((1R,2R)-2-(4-fluorophenyl)cyclopropyl)methyl)-[1,2,4]triazolo[4,3-b]pyridazin-7-amine], the concentration for a half-maximal effect (EC50) came to 158 nM.

As to `Fc1ccc([C@H]2C[C@@H]2CNc2cnn3c(CC4CC4)nnc3c2Cl)cc1` [Example 11, 8-Chloro-3-(cyclopropylmethyl)-N-(((1S,2S)-2-(4-fluorophenyl)cyclopropyl)methyl)-[1,2,4]triazolo[4,3-b]pyridazin-7-amine], the concentration giving a half-maximal response (EC50) is 60 nM.

For `COc1c(N2CCC(c3ccc(F)cc3)CC2)ncn2c(CC3CC3)nnc12` [Example 12, 3-(Cyclopropylmethyl)-7-(4-(4-fluorophenyl)piperidin-1-yl)-8-methoxy-[1,2,4]triazolo[4,3-c]pyrimidine], the midpoint of the response, the EC50, lay at 519 nM.

Compound `COc1c(N2CCC(c3ccc(F)cc3)CC2)ncn2c(CC(C)(C)C)nnc12` [Example 13, 7-(4-(4-Fluorophenyl)piperidin-1-yl)-8-methoxy-3-neopentyl-[1,2,4]triazolo[4,3-c]pyrimidine] displayed a 50% effective concentration (EC50) of 286 nM.

As for `COc1c(N2CCC(O)(c3ccc(F)cc3)CC2)ncn2c(CC3CC3)nnc12` [Example 14, 1-(3-(Cyclopropylmethyl)-8-methoxy-[1,2,4]triazolo[4,3-c]pyrimidin-7-yl)-4-(4-fluorophenyl)piperidin-4-ol], the EC50 is 782 nM.

For `Clc1c(N2CCN(c3ncccn3)CC2)cnn2c(CC3CC3)nnc12` [Example 15, 8-Chloro-3-(cyclopropylmethyl)-7-(4-(pyrimidin-2-yl)piperazin-1-yl)-[1,2,4]triazolo[4,3-b]pyridazine], the 50% effective concentration (EC50) is 280 nM.

As to `CC(C)(C)Cc1nnc2c(Cl)c(N3CCN(c4ncccn4)CC3)cnn12` [Example 16, 8-Chloro-3-neopentyl-7-(4-(pyrimidin-2-yl)piperazin-1-yl)-[1,2,4]triazolo[4,3-b]pyridazine], the EC50 came to 437 nM.

Compound `Fc1ccc(C2CCN(c3cnn4c(CC5CC5)nnc4c3Cl)CC2)cc1` [Example 17, 8-Chloro-3-(cyclopropylmethyl)-7-(4-(4-fluorophenyl)piperidin-1-yl)-[1,2,4]triazolo[4,3-b]pyridazine] gave a 50% effective concentration (EC50) of 46 nM.

The compound `CC(C)(C)Cc1nnc2c(Cl)c(N3CCC(c4ccc(F)cc4)CC3)cnn12` [Example 18, 8-Chloro-7-(4-(4-fluorophenyl)piperidin-1-yl)-3-neopentyl-[1,2,4]triazolo[4,3-b]pyridazine] displayed a concentration for a half-maximal effect (EC50) of 145 nM.

Consider `Fc1ccc(N2CCN(c3cnn4c(CC5CC5)nnc4c3Cl)CC2)cc1` [Example 19, 8-Chloro-3-(cyclopropylmethyl)-7-(4-(4-fluorophenyl)piperazin-1-yl)-[1,2,4]triazolo[4,3-b]pyridazine], for which the concentration for a half-maximal effect (EC50) turned out to be 614 nM.

In turn, `Clc1c(N2CCC3(C=Cc4ccccc43)CC2)cnn2c(CC3CC3)nnc12` [Example 20, 8-Chloro-3-(cyclopropylmethyl)-7-(spiro[indene-1,4′-piperidin]-1′-yl)-[1,2,4]triazolo[4,3-b]pyridazine] came in with a concentration giving a half-maximal response (EC50) of 145 nM.

`Clc1c(NCC2(COc3ccccc3)CC2)cnn2c(CC3CC3)nnc12` [Example 21, 8-Chloro-3-(cyclopropylmethyl)-N-((1-(phenoxymethyl)cyclopropyl)methyl)-[1,2,4]triazolo[4,3-b]pyridazin-7-amine] returned an EC50 of 2310 nM.

Regarding `COc1cccc(F)c1C1CCN(c2cnn3c(CC4CC4)nnc3c2Cl)CC1` [Example 22, 8-Chloro-3-(cyclopropylmethyl)-7-(4-(2-fluoro-6-methoxyphenyl)piperidin-1-yl)-[1,2,4]triazolo[4,3-b]pyridazine], the EC50 stood at 3 nM.

With `Fc1ccccc1C1CCN(c2cnn3c(CC4CC4)nnc3c2Cl)CC1` [Example 23, 8-Chloro-3-(cyclopropylmethyl)-7-(4-(2-fluorophenyl)piperidin-1-yl)-[1,2,4]triazolo[4,3-b]pyridazine], the EC50 was determined as 13 nM.

As to `Fc1cccc(C2CCN(c3cnn4c(CC5CC5)nnc4c3Cl)CC2)c1` [Example 24, 8-Chloro-3-(cyclopropylmethyl)-7-(4-(3-fluorophenyl)piperidin-1-yl)-[1,2,4]triazolo[4,3-b]pyridazine], the midpoint of the response, the EC50, lay at 25 nM.

As for `Fc1ccccc1C1CCN(c2cnn3c(CC(F)(F)F)nnc3c2Cl)CC1` [Example 25, 8-Chloro-7-(4-(2-fluorophenyl)piperidin-1-yl)-3-(2,2,2-trifluoroethyl)-[1,2,4]triazolo[4,3-b]pyridazine], the concentration giving a half-maximal response (EC50) is 20 nM.

Take `COc1cccc(F)c1C1CCN(c2cnn3c(CC(F)(F)F)nnc3c2Cl)CC1` [Example 26, 8-Chloro-7-(4-(2-fluoro-6-methoxyphenyl)piperidin-1-yl)-3-(2,2,2-trifluoroethyl)-[1,2,4]triazolo[4,3-b]pyridazine]: the midpoint of the response, the EC50, lay at 2 nM.

With `COc1ccccc1C1CCN(c2cnn3c(CC4CC4)nnc3c2Cl)CC1` [Example 27, 8-Chloro-3-(cyclopropylmethyl)-7-(4-(2-methoxyphenyl)piperidin-1-yl)-[1,2,4]triazolo[4,3-b]pyridazine], the EC50 is 9 nM.

In the case of `COc1cccc(C2CCN(c3cnn4c(CC5CC5)nnc4c3Cl)CC2)c1` [Example 28, 8-Chloro-3-(cyclopropylmethyl)-7-(4-(3-methoxyphenyl)piperidin-1-yl)-[1,2,4]triazolo[4,3-b]pyridazine], the EC50 is 38 nM.

For `Cc1ccccc1C1CCN(c2cnn3c(CC4CC4)nnc3c2Cl)CC1` [Example 29, 8-Chloro-3-(cyclopropylmethyl)-7-(4-(o-tolyl)piperidin-1-yl)-[1,2,4]triazolo[4,3-b]pyridazine], the concentration giving a half-maximal response (EC50) was determined as 21 nM.

In turn, `COc1ccc(C2CCN(c3cnn4c(CC5CC5)nnc4c3Cl)CC2)cc1` [Example 30, 8-Chloro-3-(cyclopropylmethyl)-7-(4-(4-methoxyphenyl)piperidin-1-yl)-[1,2,4]triazolo[4,3-b]pyridazine] registered an EC50 of 18 nM.

For orientation: EC50 means the midpoint of the concentration-response curve.
